Measured values: paper PMC9137037 (Frontiers in Oncology, 2022)
Where no end group is shown, it is not given here.

How the values were obtained:
beagle dogs [1] = experiment: Safety observations in immunized beagle dogs; assay type: in vivo, dog
Description: (§1) In brief, the beagle dogs were purchased from Covance Research Products (Cumberland, VA, USA) and were housed in the Ohio State University Veterinarian Facility Institutional Animal Care Facility. The dogs were housed at 19°C−24°C room temperature with approximately 70% humidity, and 12 h light and 12 h dark–light cycle. The dogs’ body weights were at least 7.5 kg when they received the first immunization. […] The dogs received a total of 4 doses, immunization was done at the rear thigh with two sites of injections, the bleed was collected as indicated time points to monitor the antibody titers, and the body weight of each dog was monitored closely (see Figures 3B, C for detail).
This study was designed to monitor the kinetics of how quickly the antibody levels to MVF-PD-1(92-110) diminished after the dosing was stopped. The recall of an antibody response was also tested after re-challenge. Four beagle dogs were used in this study of MVF-PD-1(92-110) peptide cancer vaccine. Dogs #1, #2, and #3 were treated with MVF-PD-1(92-110) emulsified with nor-MDP and ISA 720 using different doses ( Figure 3A ). Dog#1 was treated with 1.0 mg low-dose peptide, dog#2 was treated with 1.5 mg medium-dose peptide, and dog #3 was treated with 3.0 mg high-dose peptide. The negative control dog #10 was only treated with the MVF peptide emulsified with nor-MDP and Montanide ISA720. Dogs were immunized 4 times designated as 1Y, 2Y, 3Y, and 4Y at Day 0, Day 35, Day 56, and 6 months after primary immunization, respectively. Blood was collected every 2 weeks, except for the first collection, which was 3 weeks after the primary immunization and 1 week after 2Y and 3Y immunization ( Figure 3B ). The sera were used to monitor the antibody titers. We monitored the beagle dogs’ body weight closely during the immunization period ( Figure 3C ).
• a) Beagle dogs were immunized with MVF-PD-1 (92-110) (3 dogs with 1 dog each at the doses of 1, 1.5, and 3 mg/dose). • b) All dogs administered with MVF-PD-1 (92-110) had high polyclonal anti-MVF-PD-1 (92-110) antibody titers. […] These injection site lesions were mostly attributed to the high volume of Montanide ISA 720 VG used in this study.

beagle dogs [2] = experiment: ELISA antibody titers in sera of immunized beagle dogs; assay type: in vivo, dog; conditions: for antibody titers in sera (words): beagle dogs, 1.0, 1.5, 3.0 mg with nor-MDP and ISA 720, ELISA
Description: as §1
Enzyme-linked immunosorbent assay (ELISA) was performed per our lab standard procedure. Briefly, a 96-well plate was coated with 100 μl of MVF-PD-1(92-110) peptide as an antigen at 2 μg/ml in phosphate-buffered saline (PBS; Research Products International, Mt Prospect, IL, USA, CAS No. 7647-145) overnight at 4°C. Nonspecific binding sites were blocked for 1 h with 200 μl of PBS with 1% BSA (bovine serum albumin; Thermo Fisher Scientific, Waltham, […], USA, BP9703-100), and the plate was washed with a washing buffer (PBS diluted 0.05% Tween 1% horse serum). […] After washing, the antibody was detected using 50 μl of 0.15% H2O2 in 24 mM of citric acid and 5 mM of the sodium phosphate buffer (pH5.2) with 0.5 mg/ml 2, […] (3-ethylbenzthiazole- 6-sulfonic acid, ABTS; Sigma, St. Louis, MO, USA) as the chromophore. […] Absorbance was read at 415 nm using an ELISA microplate reader (SPECTRAmax PLUS384; Molecular Devices, San Jose, CA, USA). The highest dilution at the cutoff absorbance 0.2 were determined as the antibody titer.
This study was designed to monitor the kinetics of how quickly the antibody levels to MVF-PD-1(92-110) diminished after the dosing was stopped. […] We monitored the beagle dogs’ body weight closely during the immunization period ( Figure 3C ).

Sequence: KLLSLIKGVIVHRLEGVEGPSLGAISLAPKAQIKESLRAEL [MVF-PD-1(92-110)]
- dogs with adverse local reaction (lesions at or near the IM injection site) (beagle dogs [1]; 1, 1.5 and 3 mg/dose, 1 dog each, lesions resolved within a few weeks after dosing ceased, mostly attributed to high volume of Montanide ISA 720 VG): Two out of three
- body weight by the end of the experiment compared with the initial weight (beagle dogs [1]; all dogs): gained some weight
- induction of autoimmune responses (beagle dogs [1]; beagle dogs): has not been observed
- safety (summary) (beagle dogs [1]; dog): safe
- antibody titers in sera (words) (beagle dogs [2]): high titer antibody
- antibody titers in sera (words) (beagle dogs [2]; listed as PD-1(92)): high immunogenicity
- antibody titers after dosing stopped and after re-challenge (beagle dogs [2]; beagle dogs, 4Y boost 6 months after primary immunization): dropped to very low levels in the absence of dosing but could be recovered if the dog was re-challenged with vaccine
